Consider 24 compounds from patent US9000153B2, “Imidazo[4,5-c]quinolines as DNA-PK inhibitors” (Merck Patent GmbH, priority 2010, dated 2015).

pIC50: −log10 of the molar value.

For the experiment, the target named is DNA-PK (Homo sapiens (Human), UniProt P78527). Nature of the experiment: DNA-PK/biochemical assay (FlashPlate kinase assay). The settings on record: 5 μM ATP, 90 min, room temperature. As to the method: The kinase assay was carried out in streptavidin-coated […] microtitre FlashPlates®. To this end, 1.5 μg of the DNA-PK/protein complex and 100 ng of biotinylated substrate, such as, for example, PESQEAFADLWKK biotin-NH2 (“biotin-DNA-PK peptide”), in a total volume of 36.5 μl (34.25 mM HEPES/KOH, 7.85 mM Tris-HCl, 68.5 mM KCl, 5 μM ATP, 6.85 mM MgCl2, 0.5 mM EDTA, 0.14 mM EGTA, 0.69 mM DTT, pH 7.4), were incubated at room temperature for 90 min with 500 ng of DNA from calf thymus, 0.1 μCi of 33P-ATP and 1.8% of DMSO per well with or without the test compound. The reaction was stopped using 50 μl/well of 200 mM EDTA. After incubation for a further 30 min at room temperature, the liquid was removed. Each well was washed three times with 100 μl of 0.9% sodium chloride solution. A non-specific reaction (blank value) was determined using 10 μM of a proprietary kinase inhibitor. The radioactivity measurement was carried out by means of a TopCount. IC50 values were calculated in RS1 (Kashishian et al. (2003) Molecular Cancer Therapeutics 1257).

For `COc1cc2ncc3[nH]c(=O)n(-c4ccc(C#N)cc4)c3c2cc1OC` [Compound 1, 4-(7,8-Dimethoxy-2-oxo-2,3-dihydroimidazo[4,5-c]quinolin-1-yl)benzonitrile], the pIC50 was over 7.00.
As for `COc1cc2ncc3c(c2cc1OC)n(-c1ccc(C#N)cc1)c(=O)n3C` [Compound 2, 4-(7,8-Dimethoxy-3-methyl-2-oxo-2,3-dihydroimidazo-[4,5-c]quinolin-1-yl)-benzonitrile], the pIC50 is over 7.00.
With `COc1cc2ncc3c(c2cc1O)n(-c1ccc(C#N)cc1)c(=O)n3C` [Compound 3, 4-(8-Hydroxy-7-methoxy-3-methyl-2-oxo-2,3-dihydro-imidazo[4,5-c]quinolin-1-yl)-benzonitrile], the pIC50 was over 7.00.
Compound `COc1cc2ncc3c(c2cc1O)n(-c1ccc(C#N)cc1F)c(=O)n3C` [Compound 4, 3-Fluoro-4-(8-hydroxy-7-methoxy-3-methyl-2-oxo-2,3-dihydroimidazo[4,5-c]quinolin-1-yl)benzonitrile] showed a pIC50 of over 7.00.
`COc1cc2ncc3c(c2cc1O)n(-c1c(F)cc(C#N)cc1F)c(=O)n3C` [Compound 5, 3,5-Difluoro-4-(8-hydroxy-7-methoxy-3-methyl-2-oxo-2,3-dihydroimidazo[4,5-c]quinolin-1-yl)benzonitrile]: the pIC50 is over 7.00.
For the compound `COc1cc2ncc3[nH]c(=O)n(-c4ccc(C#N)cc4)c3c2cc1OCc1ccccc1` [Compound 6, 4-(8-Benzyloxy-7-methoxy-2-oxo-2,3-dihydroimidazo-[4,5-c]quinolin-1-yl)-benzonitrile], the pIC50 is over 7.00.
As to `COc1cc2ncc3c(c2cc1OCc1ccccc1)n(-c1ccc(C#N)cc1)c(=O)n3C` [Compound 7, 4-(8-Benzyloxy-7-methoxy-3-methyl-2-oxo-2,3-dihydro-imidazo[4,5-c]quinolin-1-yl)-benzonitrile], the pIC50 was over 7.00.
For the compound `COc1cc2ncc3[nH]c(=O)n(-c4ccc(C#N)cc4F)c3c2cc1OCc1ccccc1` [Compound 8, 4-(8-Benzyloxy-7-methoxy-2-oxo-2,3-dihydroimidazo-[4,5-c]quinolin-1-yl)-3-fluorobenzonitrile], the pIC50 is over 7.00.
In the case of `COc1cc2ncc3c(c2cc1OCc1ccccc1)n(-c1ccc(C#N)cc1F)c(=O)n3C` [Compound 9, 4-(8-Benzyloxy-7-methoxy-3-methyl-2-oxo-2,3-dihydro-imidazo[4,5-c]quinolin-1-yl)-3-fluorobenzonitrile] it was over 7.00.
With `COc1cc2ncc3[nH]c(=O)n(-c4c(F)cc(C#N)cc4F)c3c2cc1OCc1ccccc1` [Compound 10, 4-(8-Benzyloxy-7-methoxy-2-oxo-2,3-dihydroimidazo-[4,5-c]quinolin-1-yl)-3,5-difluorobenzonitrile], the negative logarithm of the IC50 (pIC50) was over 7.00.
In the case of `COc1cc2ncc3c(c2cc1OCc1ccccc1)n(-c1c(F)cc(C#N)cc1F)c(=O)n3C` [Compound 11, 4-(8-Benzyloxy-7-methoxy-3-methyl-2-oxo-2,3-dihydro-imidazo[4,5-c]quinolin-1-yl)-3,5-difluorobenzonitrile] it was over 7.00; in that of `COC(=O)n1c(=O)n(-c2ccc(C#N)cc2F)c2c3cc(OCc4ccccc4)c(OC)cc3ncc21` [Compound 12, Methyl 8-benzyloxy-1-(4-cyano-2-fluorophenyl)-7-methoxy-2-oxo-1,2-dihydroimidazo[4,5-c]-quinoline-3-carboxylate], over 7.00; in that of `COc1cc2ncc3c(c2cc1OCc1ccsc1)n(-c1ccc(C#N)cc1F)c(=O)n3C` [Compound 13, 3-Fluoro-4-(7-methoxy-3-methyl-2-oxo-8-(thiophen-3-ylmethoxy)-2,3-dihydroimidazo[4,5-c]-quinolin-1-yl)benzonitrile], over 7.00.
For `COc1cc2ncc3c(c2cc1OCc1cccs1)n(-c1ccc(C#N)cc1F)c(=O)n3C` [Compound 14, 3-Fluoro-4-(7-methoxy-3-methyl-2-oxo-8-(thiophen-2-ylmethoxy)-2,3-dihydroimidazo[4,5-c]-quinolin-1-yl)benzonitrile] the value was over 7.00; for `COc1cc2ncc3c(c2cc1OC(C(N)=O)c1ccc(F)cc1)n(-c1ccc(C#N)cc1F)c(=O)n3C` (stereo not drawn) [Compound 15, 2-[1-(4-Cyano-2-fluorophenyl)-7-methoxy-3-methyl-2-oxo-2,3-dihydro-1H-imidazo[4,5-c]-quinolin-8-yloxy]-2-(4-fluoro-phenyl)acetamide], over 7.00.
For `COCCNC(=O)C(Oc1cc2c(cc1OC)ncc1c2n(-c2ccc(C#N)cc2F)c(=O)n1C)c1ccc(F)cc1` (stereo not drawn) [Compound 16, 2-[1-(4-Cyano-2-fluorophenyl)-7-methoxy-3-methyl-2-oxo-2,3-dihydro-1H-imidazo[4,5-c]-quinolin-8-yloxy]-2-(4-fluoro-phenyl)-N-(2-methoxyethyl)-acetamide] the value was 6.30 to 7.00.
In turn, `COc1cc2ncc3c(c2cc1OCc1ccc(F)cc1)n(-c1ccc(C#N)cc1F)c(=O)n3C` [Compound 17, 3-Fluoro-4-[8-(4-fluoro-benzyloxy)-7-methoxy-3-methyl-2-oxo-2,3-dihydro-imidazo[4,5-c]quinolin-1-yl]-benzonitrile] showed a negative logarithm of the IC50 (pIC50) of over 7.00.
In the case of `COc1cc2ncc3c(c2cc1OC(C(N)=O)c1ccccc1)n(-c1ccc(C#N)cc1F)c(=O)n3C` (stereo not drawn) [Compound 18, 2-[1-(4-Cyano-2-fluorophenyl)-7-methoxy-3-methyl-2-oxo-2,3-dihydro-1H-imidazo[4,5-c]-quinolin-8-yloxy]-2-phenyl-acetamide] it was over 7.00.
For `COc1cc2ncc3c(c2cc1OCc1sccc1S(=O)(=O)N1CCOCC1)n(-c1ccc(C#N)cc1F)c(=O)n3C` [Compound 19, 3-Fluoro-4-{7-methoxy-3-methyl-8-[3-(morpholine-4-sulfonyl)-thiophen-2-ylmethoxy]-2-oxo-2,3-dihydro-1H-imidazo[4,5-c]-quinolin-1-yl}benzonitrile] the value was 6.30 to 7.00; for `COc1cc2ncc3c(c2cc1OCc1ccncc1)n(-c1ccc(C#N)cc1F)c(=O)n3C` [Compound 20, 3-Fluoro-4-[7-methoxy-3-methyl-2-oxo-8-(pyridin-4-ylmethoxy)-2,3-dihydroimidazo[4,5-c]-quinolin-1-yl]benzonitrile], over 7.00; for `COc1cc2ncc3c(c2cc1OCc1ccccc1Br)n(-c1ccc(C#N)cc1F)c(=O)n3C` [Compound 21, 4-[8-(2-Bromobenzyloxy)-7-methoxy-3-methyl-2-oxo-2,3-dihydroimidazo[4,5-c]quinolin-1-yl]-3-fluorobenzonitrile], over 7.00.
For `COc1cc2ncc3c(c2cc1OCc1ccc(F)cc1Br)n(-c1ccc(C#N)cc1F)c(=O)n3C` [Compound 22, 4-[8-(2-Bromo-4-fluorobenzyloxy)-7-methoxy-3-methyl-2-oxo-2,3-clihydro-imidazo[4,5-c]quinolin-1-yl]-3-fluorobenzonitrile] the value was over 7.00.
For the compound `COc1cc2ncc3c(c2cc1OCc1ccc(F)cc1Cl)n(-c1ccc(C#N)cc1F)c(=O)n3C` [Compound 23, 4-[8-(2-Chloro-4-fluorobenzyloxy)-7-methoxy-3-methyl-2-oxo-2,3-dihydro-imidazo[4,5-c]quinolin-1-yl]-3-fluorobenzonitrile], the pIC50 is over 7.00.
Compound `COc1cc2ncc3c(c2cc1OCc1ccc(F)c(Cl)c1)n(-c1ccc(C#N)cc1F)c(=O)n3C` [Compound 24, 4-[8-(3-Chloro-4-fluorobenzyloxy)-7-methoxy-3-methyl-2-oxo-2,3-dihydro-imidazo[4,5-c]quinolin-1-yl]-3-fluorobenzonitrile] showed a negative-log IC50 (pIC50) of over 7.00.

For orientation: pIC50 means the IC50 on a negative log10 scale, so that one unit is a factor of ten.
